The source of these data is patent US7847065B2, “CXADRL1 polypeptides relating to human cancers” (Oncotherapy Science, Inc., priority 2002, dated 2010).

Read-outs that look alike come from different tables or passages of the source. Ends that are not written are not given here.

One data set has as its system SNU475. Description: Cytotoxicity of CTLs against tumor cell line SNU475. The class given is cell-based, human. The following applies: SNU475 expresses CXADRL1, GCUD1 and HLA-A*0201.
The subject of another data set is SNU475 cells. Description: Blocking assay with antibodies, target SNU475. Format: cell-based, human.
A further data set deals with MKN74. Description: Cytotoxicity of CTL clone against tumor cell line MKN74. The class given is cell-based, human. The following applies: expresses CXADRL1 but not HLA-A*0201.
Data set [1] relates to SNU-C4. Description: Cytotoxicity of CTL clone against tumor cell line SNU-C4. The note with it: HLA-A*0201 but not CXADRL1; RNF43 but little HLA-A24.
Experimental: (§3) Target cells were labeled with 100 μCi of Na2^51CrO4 (Perkin Elmer Life Sciences) for 1 h at 37° C. in a CO2 incubator. When peptide-pulsed targets were used, target cells were incubated with the addition of 20 μg/ml of the peptide for 16 h at 37° C. before the labeling with Na2^51CrO4. Target cells were rinsed and mixed with effectors at a final volume of 0.2 ml in round-bottom microtiter plates. The plates were centrifuged (4 minutes at 800×g) to increase cell-to-cell contact and placed in a CO2 incubator at 37° C. After 4 h of incubation, 0.1 ml of the supernatant was collected from each well and the radioactivity was determined with a gamma counter. In case of evaluating cytotoxicity against target cells that endogenously express RNF43, CXADRL1, or GCUD1, the cytolytic activity was tested in the presence of a 30-fold excess of unlabeled K562 cells to reduce any non-specific lysis due to NK-like effectors. […]
(§4) The percentage of specific cytotoxicity was determined by calculating the percentage of specific ^51Cr-release by the following formula: {(cpm of the test sample release−cpm of the spontaneous release)/(cpm of the maximum release−cpm of the spontaneous release)}×100. Spontaneous release was determined by incubating the target cells alone in the absence of effectors, and the maximum release was obtained by incubating the targets with 1N HCl. […]
Data set [2] relates to T2 cells (HLA-A*0201). Briefly: 51Cr-release cytotoxicity assay of peptide-induced CTLs on T2 cells. The following applies: for Cytotoxic activity of peptide-induced CTL line/clone on non-pulsed target: T2 not pulsed with any peptide; for Cytotoxic activity of peptide-induced CTL line/clone on peptide-pulsed target: T2 pulsed with the peptide.
Experimental: (§5) Target cells were labeled with 100 μCi of Na2^51CrO4 (Perkin Elmer Life Sciences) for 1 h at 37° C. in a CO2 incubator. When peptide-pulsed targets were used, target cells were incubated with the addition of 20 μg/ml of the peptide for 16 h at 37° C. before the labeling with Na2^51CrO4. Target cells were rinsed and mixed with effectors at a final volume of 0.2 ml in round-bottom microtiter plates. The plates were centrifuged (4 minutes at 800×g) to increase cell-to-cell contact and placed in a CO2 incubator at 37° C. After 4 h of incubation, 0.1 ml of the supernatant was collected from each well and the radioactivity was determined with a gamma counter. In case of evaluating cytotoxicity against target cells that endogenously express RNF43, CXADRL1, or GCUD1, the cytolytic activity was tested in the presence of a 30-fold excess of unlabeled K562 cells to reduce any non-specific lysis due to NK-like effectors. […] The MHC restriction was examined by blocking assay, measuring the inhibition of the cytotoxicity with anti-HLA-class I (W6/32) antibody and anti-HLA-class II antibody, or anti-CD4 antibody and anti-CD8 antibody (DAKO).
(§6) The percentage of specific cytotoxicity was determined by calculating the percentage of specific ^51Cr-release by the following formula: {(cpm of the test sample release−cpm of the spontaneous release)/(cpm of the maximum release−cpm of the spontaneous release)}×100. Spontaneous release was determined by incubating the target cells alone in the absence of effectors, and the maximum release was obtained by incubating the targets with 1N HCl. All determinants were done in duplicate, and the standard errors of the means were consistently below 10% of the value of the mean.
For the next data set, the system named is MKN-28 cells. Description: MTT assay after transfection of S-oligonucleotides, MKN-28. The class given is cell-based, human. The following applies: six days after transfection. As for the experimental part:
(§1) Cells plated onto 10-cm dishes (2×10^5 cells/dish) were transfected either with plasmid, or synthetic S-oligonucleotides of CXADRL1, GCUD1, or RNF43 using LIPOFECTIN Reagent (GIBCO BRL). Then the cells were cultured with the addition of an appropriate concentration of geneticin for six to twelve days. The cells were then fixed with 100% methanol and stained by Giemsa solution. Sequences of the S-oligonucleotides were as follows:
(§2) Cells plated at a density of 5×10^5 cells/100 mm dish were transfected in triplicate with sense or antisense S-oligonucleotides designated to suppress the expression of CXADRL1, GCUD1, or RNF43. […] Subsequently, the cells were lysed by the addition of 1 ml of 0.01 N HCl/10% SDS and the absorbance of lysates was measured with ELISA plate reader at a test wavelength of 570 nm (reference, 630 nm). The cell viability was represented by the absorbance compared to that of control cells.
(In general: Tetrazolium dyes change colour on reduction, which living cells bring about.)

For data set [3], the system named is T2 cells (HLA-A*0201).
Experimental: as §5, §6
Data set [4] deals with MKN-1 gastric cancer cells. Briefly: MTT assay after transfection of S-oligonucleotides, MKN-1. The class given is cell-based, human. The note with it: MKN-1 cells, six days after transfection. On the procedure:
as §1, §2

The subject of a further data set is MKN45. Description: Cytotoxicity of CTL clone against tumor cell line MKN45. Format: cell-based, human. The following applies: expresses GCUD1 but not HLA-A*0201.
For another data set, the system named is RNF43. Briefly: Suppression of RNF43 expression by antisense S-oligonucleotide (semi-quantitative RT-PCR), LoVo cells. The class given is cell-based, human. The note with it: 12 hours after transfection. On the procedure:
Total RNA was extracted with Qiagen RNeasy kit (Qiagen) or Trizol reagent (Life Technologies) according to the manufacturers' protocols. Ten-microgram aliquots of total RNA were reversely transcribed for single-stranded cDNAs using poly dT12-18 primer (Amersham Pharmacia Biotech) with Superscript II reverse transcriptase (Life Technologies). Each single-stranded cDNA preparation was diluted for subsequent PCR amplification by standard RT-PCR experiments carried out in 20 μl volumes of PCR buffer (TaKaRa). Amplification was conducted under following conditions: denaturing for 4 min at 94° C., followed by 20 (for GAPDH), 35 (for CXADRL1), 30 (for GCUD1), 30 (for RNF43) cycles of 94° C. for 30 s, 56° C. for 30 s, and 72° C. for 45 s, in GeneAmp PCR system 9700 (Perkin-Elmer, Foster City, Calif.). Primer sequences were; for GAPDH: forward, 5′-[…] (SEQ ID NO: 7) and reverse, 5′-[…] (SEQ ID NO: 8); for CXADRL1: forward, 5′-[…] (SEQ ID NO: 9) and reverse: 5′-TATAAACCAG CTGAGTCCAGAG (SEQ ID NO: 10); for GCUD1 forward: 5′-[…] (SEQ ID NO: 11) reverse: 5′-[…] (SEQ ID NO: 12), for RNF43 forward; 5′-[…]-3′ (SEQ ID NO: 13) and reverse; 5′-[…]-3′ (SEQ ID NO: 14).
Cells plated onto 10-cm dishes (2×10^5 cells/dish) were transfected either with plasmid, or synthetic S-oligonucleotides of CXADRL1, GCUD1, or RNF43 using LIPOFECTIN Reagent (GIBCO BRL). […]

Another data set deals with LoVo colon cancer cells. Description: MTT assay after transfection of S-oligonucleotides, LoVo. The class given is cell-based, human. The note with it: six days after transfection. On the procedure:
as §1, §2

For data set [5], the system named is SNU-C4.
Experimental: as §3, §4

Experimental for DLD-1: as §3, §4
Experimental for HCT116: as §3, §4
Experimental for HT29: as §5, §6
Experimental for MKN45: as §3, §4
Experimental for MKN74: as §3, §4
Experimental for SNU475 cells: as §5
Experimental for TISI cells (HLA-A24/24): as §5, §6
Experimental for WiDR cells: as §5

On to ALSSGLYQC [CXADRL1-207, ALSSGLYQC], for which the “Cytotoxic activity of peptide-induced CTLs against SNU475” value (“Cytotoxic activity … against SNU475” below) in the data set on SNU475 was “potent cytotoxic activity”. Moreover, in the data set on SNU475 cells, the “Cytotoxicity of CTL clone against SNU475 with anti-HLA-Class I antibody and anti-CD8 antibody” value is on record as “significantly inhibited”. Besides, the “Cytotoxic activity of CTL clone against MKN74” value in the data set with MKN74 is given as “not against”. Besides, in the data set with SNU-C4 [1], the “Cytotoxic activity of CTL clone against SNU-C4” value was “not against”. In the data set with T2 cells (HLA-A*0201) [2], the “Cytotoxic activity of peptide-induced CTL line/clone on non-pulsed target” value is “without showing any cytotoxic activity” and the “Cytotoxic activity of peptide-induced CTL line/clone on peptide-pulsed target” value was “very potent cytotoxic activity”.
In the case of “5′-CGGCTTACCTCAACCT-3′ (phosphorothioate, further chemistry not given here) [GCUD1-AS8, antisense S-oligonucleotide]”, the “Viable cells (MTT assay) compared with control S-oligonucleotides” value with MKN-28 cells was “markedly fewer”.
Take WLLMATLQA [RNF43-15, WLLMATLQA]: in the data set on T2 cells (HLA-A*0201) [3], the “Cytotoxicity(%) ×2 Pep(+)” value is reported as −0.4%, the “Cytotoxicity(%) ×2 Pep(−)” value is reported as −0.9%, the “Cytotoxicity(%) ×20 Pep(+)” value is −0.2% and the “Cytotoxicity(%) ×20 Pep(−)” value came out at 0.0%.
Consider “5′-CTACTCACCGTGCAGA-3′ (phosphorothioate, further chemistry not given here) [CXADRL1-AS4, antisense S-oligonucleotide]”, for which the “Viable cells (MTT assay) compared with control S-oligonucleotides” value in data set [4] is “markedly fewer”.
Turning to ALWPWLLMAT [RNF43-11, ALWPWLLMAT], the “Cytotoxic activity of CTL clone on DLD-1” value in the data set with DLD-1 is “high cytotoxic activity”. In the data set with T2 cells (HLA-A*0201) [3], the “Cytotoxic activity of peptide-induced CTL line/clone on peptide-pulsed target” value is listed as “higher cytotoxic activity”. In the data set with HT29, the “Cytotoxic activity of CTL clone on HT29” value is reported as “no significant cytotoxic activity”.
In the case of KMDAEHPEL [GCUD1-196, KMDAEHPEL], the “Cytotoxic activity … against SNU475” value with SNU475 is given as “potent cytotoxic activity”. Moreover, in the data set on SNU475 cells, the “Cytotoxicity of CTL clone against SNU475 with anti-HLA-Class I antibody and anti-CD8 antibody” value is “significantly inhibited”. Besides, the “Cytotoxic activity of CTL clone against MKN45” value with MKN45 is reported as “not against”. In the data set with T2 cells (HLA-A*0201) [2], the “Cytotoxic activity of peptide-induced CTL line/clone on non-pulsed target” value is “without showing any cytotoxic activity” and the “Cytotoxic activity of peptide-induced CTL line/clone on peptide-pulsed target” value is listed as “very potent cytotoxic activity”.
Take “5′-ACCACTCATGCTACCA-3′ (phosphorothioate, further chemistry not given here) [RNF43-AS1, antisense S-oligonucleotide]”: the “Expression of RNF43 compared to control S-oligonucleotides (RNF43-S1)” value in the data set on RNF43 is “significantly suppressed”. Also, the “Number of surviving cells compared with RNF43-S1” value in the data set with LoVo colon cancer cells is reported as “significantly fewer”.
KMDAEHPEV [GCUD1-9V, KMDAEHPEV]: the “Cytotoxic activity … against SNU475” value in the data set with SNU475 is listed as “killed”.
For ALWPWLLMA [RNF43-11, ALWPWLLMA], in the data set on DLD-1, the “Cytotoxic activity of CTL clone on DLD-1” value was “high cytotoxic activity”. In the data set on HT29, the “Cytotoxic activity of CTL clone on HT29” value is listed as “no significant cytotoxic activity”.
LMQSHPLYL [RNF43-82, LMQSHPLYL]: in the data set with T2 cells (HLA-A*0201) [3], the “Cytotoxicity(%) ×2 Pep(+)” value is 0.0%, the “Cytotoxicity(%) ×2 Pep(−)” value is reported as −0.4%, the “Cytotoxicity(%) ×20 Pep(+)” value was found to be 1.7% and the “Cytotoxicity(%) ×20 Pep(−)” value is recorded as 1.2%.
For the substance “5′-TGCAACACCTACAGAA-3′ (phosphorothioate, further chemistry not given here) [CXADRL1-AS5, antisense S-oligonucleotide]”, the “Viable cells (MTT assay) compared with control S-oligonucleotides” value in [4] was “markedly fewer”.
Consider ALSSGLYQV [CXADRL1-9V, ALSSGLYQV], for which the “Cytotoxic activity … against SNU475” value in the data set on SNU475 is “killed”.
Take KLNLTLEGV [RNF43-60, KLNLTLEGV]: in the data set on T2 cells (HLA-A*0201) [3], the “Cytotoxicity(%) ×2 Pep(+)” value was −1.6%, the “Cytotoxicity(%) ×2 Pep(−)” value amounted to 0.0%, the “Cytotoxicity(%) ×20 Pep(+)” value is given as −2.1% and the “Cytotoxicity(%) ×20 Pep(−)” value was 0.2%.
On to KLMQSHPLYL [RNF43-81, KLMQSHPLYL], for which, in the data set on T2 cells (HLA-A*0201) [3], the “Cytotoxicity(%) ×2 Pep(+)” value worked out at 6.3%, the “Cytotoxicity(%) ×2 Pep(−)” value was found to be 8.3%, the “Cytotoxicity(%) ×20 Pep(+)” value was 18.0% and the “Cytotoxicity(%) ×20 Pep(−)” value turned out to be 27.6%. In the data set on TISI cells (HLA-A24/24), the “Cytotoxic activity of peptide-induced CTL line/clone on peptide-pulsed target” value was “modest cytotoxic activity”, the “Cytotoxicity of CTL lines (10mer) ×2 Pep(+)” value is 2%, the “Cytotoxicity of CTL lines (10mer) ×2 Pep(−)” value was −3% and the “Cytotoxicity of CTL lines (10mer) ×20 Pep(+)” value amounted to 10%. For the same substance, the “Cytotoxicity of CTL lines (10mer) ×20 Pep(−)” value in the data set with TISI cells (HLA-A24/24) came to 5%.
Turning to LLGPSRSAV [RNF43-358, LLGPSRSAV], in the data set with T2 cells (HLA-A*0201) [3], the “Cytotoxicity(%) ×2 Pep(+)” value was found to be 0.0%, the “Cytotoxicity(%) ×2 Pep(−)” value is −0.8%, the “Cytotoxicity(%) ×20 Pep(+)” value was −0.4% and the “Cytotoxicity(%) ×20 Pep(−)” value was −0.7%.
For KLMEFVYKN [RNF43-171, KLMEFVYKN], in the data set with T2 cells (HLA-A*0201) [3], the “Cytotoxicity(%) ×2 Pep(+)” value is recorded as 1.1%, the “Cytotoxicity(%) ×2 Pep(−)” value was −0.5%, the “Cytotoxicity(%) ×20 Pep(+)” value is 2.6% and the “Cytotoxicity(%) ×20 Pep(−)” value is given as 0.0%.
In the case of “5′-CAGCCATCCTGAAAAG-3′ (phosphorothioate, further chemistry not given here) [GCUD1-AS5, antisense S-oligonucleotide]”, in the data set with MKN-28 cells, the “Viable cells (MTT assay) compared with control S-oligonucleotides” value is reported as “markedly fewer”.
As for FLTTASGVSV [GCUD1-272, FLTTASGVSV], in the data set on T2 cells (HLA-A*0201) [2], the “Cytotoxic activity of peptide-induced CTL line/clone on non-pulsed target” value is recorded as “without showing any cytotoxic activity” and the “Cytotoxic activity of peptide-induced CTL line/clone on peptide-pulsed target” value is “very potent cytotoxic activity”.
For the substance YLLGPSRSAV [RNF43-357, YLLGPSRSAV], in the data set on T2 cells (HLA-A*0201) [3], the “Cytotoxicity(%) ×2 Pep(+)” value is given as 3.7%, the “Cytotoxicity(%) ×2 Pep(−)” value came out at 3.0%, the “Cytotoxicity(%) ×20 Pep(+)” value amounted to 18.2% and the “Cytotoxicity(%) ×20 Pep(−)” value is given as 15.4%.
With NSQPVWLCL [RNF43-721, NSQPVWLCL], in the data set on WiDR cells, the “Cytotoxicity of CTL clone on WiDR with anti-HLA-Class I, CD3, and CD8 antibodies” value was “significantly inhibited”. For the same substance, the “Cytotoxic activity of CTL clone on WiDR” value with WiDR was “potent cytotoxic activity”. For the same substance, the “Cytotoxic activity of CTL clone against SNU-C4” value in the data set on SNU-C4 [5] is recorded as “did not show any cytotoxic activity”. Moreover, in the data set on HCT116, the “Cytotoxic activity of CTL clone on HCT116” value is given as “did not show any cytotoxic activity”. In the data set on HT29, the “Cytotoxic activity of CTL clone on HT29” value is “potent cytotoxic activity”. In the data set with TISI cells (HLA-A24/24), the “Cytotoxic activity of CTL clone on irrelevant peptide pulsed TISI” value is recorded as “did not show any cytotoxic activity”, the “Cytotoxicity of CTL lines (9mer) ×2 Pep(+)” value was found to be 26%, the “Cytotoxicity of CTL lines (9mer) ×2 Pep(−)” value is given as 0% and the “Cytotoxicity of CTL lines (9mer) ×20 Pep(+)” value came to 68%. Further, the “Cytotoxicity of CTL lines (9mer) ×20 Pep(−)” value in the data set on TISI cells (HLA-A24/24) was 0%.
With GLTWPVVLI [RNF43-156, GLTWPVVLI], in the data set with T2 cells (HLA-A*0201) [3], the “Cytotoxicity(%) ×2 Pep(+)” value was −0.5%, the “Cytotoxicity(%) ×2 Pep(−)” value is given as −0.3%, the “Cytotoxicity(%) ×20 Pep(+)” value is −0.4% and the “Cytotoxicity(%) ×20 Pep(−)” value was determined as 0.7%.
